Columns and labels:
COX-2 [1] = molecular target: T1, COX-2 (UniProt P35354); assay: Fast assay for COX-2 activity (PGE2 ELISA); format: biochemical, human or murine; conditions: fast assay: 10 min pre-incubation at 25° C., reaction stopped after two minutes, pH 7.5
T1 sequence (P35354 1-604): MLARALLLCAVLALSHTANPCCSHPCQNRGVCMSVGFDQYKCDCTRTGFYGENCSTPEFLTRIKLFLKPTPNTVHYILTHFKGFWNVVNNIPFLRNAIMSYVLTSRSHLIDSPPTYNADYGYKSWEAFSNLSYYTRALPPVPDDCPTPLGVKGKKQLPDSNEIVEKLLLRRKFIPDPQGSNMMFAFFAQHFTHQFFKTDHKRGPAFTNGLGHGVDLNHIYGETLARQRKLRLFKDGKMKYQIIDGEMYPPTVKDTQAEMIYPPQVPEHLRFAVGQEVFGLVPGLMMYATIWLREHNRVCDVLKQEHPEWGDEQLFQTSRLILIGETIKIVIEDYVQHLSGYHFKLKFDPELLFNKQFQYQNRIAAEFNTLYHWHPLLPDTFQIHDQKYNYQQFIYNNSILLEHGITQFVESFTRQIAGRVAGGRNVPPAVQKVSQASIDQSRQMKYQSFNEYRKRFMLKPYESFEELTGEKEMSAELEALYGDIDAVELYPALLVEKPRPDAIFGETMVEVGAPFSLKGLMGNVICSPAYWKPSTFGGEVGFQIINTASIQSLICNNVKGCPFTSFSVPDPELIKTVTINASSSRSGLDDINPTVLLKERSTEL

COX-1 = COX-1 (UniProt P23219); assay: Assay for COX-1 activity (PGE2 ELISA); conditions: read-out: COX-1 IC50; 10–20 minutes pre-incubation, reaction stopped after ten minutes, pH 8.0
Description: (§1) Recombinant baculoviruses were isolated by transfecting 4 μg of baculovirus transfer vector DNA into SF9 insect cells (2×10^8) along with 200 ng of linearized baculovirus plasmid DNA by the calcium phosphate method. […] Recombinant viruses were purified by three rounds of plaque purification and high titer (10^7–10^8 pfu/mL) stocks of virus were prepared. For large scale production, SF9 insect cells were infected in 10 liter fermentors (0.5×10^6/mL) with the recombinant baculovirus stock such that the multiplicity of infection was 0.1. […] The homogenate was centrifuged at 10,000×G for 30 minutes, and the resultant supernatant was stored at −80° C. before being assayed for COX activity.
Assay for COX-1 and COX-2 Activity
(§2) COX activity was assayed as PGE2 formed/μg protein/time using an ELISA to detect the prostaglandin released. CHAPS-solubilized insect cell membranes containing the appropriate COX enzyme were incubated in a potassium phosphate buffer (50 mM, pH 8.0) containing epinephrine, phenol, and heme with the addition of arachidonic acid (10 μM). […] The PGE2 formed was measured by standard ELISA technology (Cayman Chemical).

COX-2 [2] = molecular target: T1, COX-2; assay: Assay for COX-2 activity (PGE2 ELISA); conditions: read-out: COX-2 IC50; 10–20 minutes pre-incubation, reaction stopped after ten minutes, pH 8.0
Description: as §1
Assay for COX-1 and COX-2 Activity
as §2

Structure (SMILES) | IC50 (COX-2 [1]) [µM] | melting point [°C] | IC50 (COX-1) [µM] | IC50 (COX-2 [2]) [µM]
Cc1cc2c(cc1Cl)C=C(C(=O)O)C(C(F)(F)F)O2 (stereo not shown) [Example 6, 6-Chloro-7-methyl-2-trifluoromethyl-2H-1-benzopyran-3-carboxylic acid] | < 0.1 | 207.5 to 209.3 |  | 
COc1ccc(Oc2ccc3c(c2)C=C(C(=O)O)C(C(F)(F)F)O3)cc1 (stereo not shown) [Example 7, 6-(4-Methoxyphenoxy)-2-(trifluoromethyl)-2H-1-benzopyran-3-carboxylic acid] |  | 181.7 to 182.9 | 1 | < 0.1
O=C(O)C1=Cc2cc(Br)ccc2OC1C(F)(F)F (stereo not shown) [Example 13, 6-Bromo-2-trifluoromethyl-2H-1-benzopyran-3-carboxylic acid] | 0.3 | 189.6 to 190.9 |  | 
O=C(O)C1=Cc2cccc(Cl)c2OC1C(F)(F)F (stereo not shown) [Example 14, 8-Chloro-2-trifluoromethyl-2H-1-benzopyran-3-carboxylic acid] | > 100 | 224.5 to 225.6 |  | 
O=C(O)C1=Cc2c(Cl)cc(Cl)cc2OC1C(F)(F)F (stereo not shown) [Example 18, 5,7-Dichloro-2-trifluoromethyl-2H-1-benzopyran-3-carboxylic acid] | 12 | 190.1 to 191.2 |  | 
O=C(O)C1=Cc2cccc(-c3ccccc3)c2OC1C(F)(F)F (stereo not shown) [Example 21, 8-Phenyl-2-trifluoromethyl-2H-1-benzopyran-3-carboxylic acid] | 11 | 171.6 to 175 |  | 
Cc1ccc2c(c1C)OC(C(F)(F)F)C(C(=O)O)=C2 (stereo not shown) [Example 22, 7,8-Dimethyl-2-trifluoromethyl-2H-1-benzopyran-3-carboxylic acid] | > 100 | 245.2 to 247.3 |  | 
CC(C)c1ccc2c(c1)OC(C(F)(F)F)C(C(=O)O)=C2 (stereo not shown) [Example 25, 7-(1-Methylethyl)-2-trifluoromethyl-2H-1-benzopyran-3-carboxylic acid] | > 100 | 158.3 to 159.7 |  | 
O=C(O)C1=Cc2ccc(-c3ccccc3)cc2OC1C(F)(F)F (stereo not shown) [Example 26, 7-Phenyl-2-trifluoromethyl-2H-1-benzopyran-3-carboxylic acid] | > 100 | 209.4 to 211.7 |  | 
CCc1cc2c(cc1Cl)C=C(C(=O)O)C(C(F)(F)F)O2 (stereo not shown) [Example 27, 6-Chloro-7-ethyl-2-trifluoromethyl-2H-1-benzopyran-3-carboxylic acid] | 67 | 170.7 to 172.1 |  | 
CCc1cc(Cl)cc2c1OC(C(F)(F)F)C(C(=O)O)=C2 (stereo not shown) [Example 29, 6-Chloro-8-ethyl-2-trifluoromethyl-2H-1-benzopyran-3-carboxylic acid] | < 0.1 | 197.2 to 199.1 |  | 
COc1cc(Cl)c2c(c1)C=C(C(=O)O)C(C(F)(F)F)O2 (stereo not shown) [Example 40, 8-Chloro-6-methoxy-2-trifluoromethyl-2H-1-benzopyran-3-carboxylic acid] |  | 204.5 to 206.9 | 43 | 
O=C(O)C1=Cc2cc(F)cc(Br)c2OC1C(F)(F)F (stereo not shown) [Example 43, 8-Bromo-6-fluoro-2-trifluoromethyl-2H-1-benzopyran-3-carboxylic acid] | 99 | > 300 |  | 
CN(C)S(=O)(=O)c1ccc2c(c1)C=C(C(=O)O)C(C(F)(F)F)O2 (stereo not shown) [Example 50, 6-[(Dimethylamino)sulfonyl]-2-trifluoromethyl-2H-1-benzopyran-3-carboxylic acid] | 79 | 201.2 to 202.5 |  | 
CNS(=O)(=O)c1ccc2c(c1)C=C(C(=O)O)C(C(F)(F)F)O2 (stereo not shown) [Example 52, 6-(Methylamino)sulfonyl-2-trifluoromethyl-2H-1-benzopyran-3-carboxylic acid] | 20 | 207.6 to 208.6 |  | 
CC(C)(C)NS(=O)(=O)c1ccc2c(c1)C=C(C(=O)O)C(C(F)(F)F)O2 (stereo not shown) [Example 54, 6-[(1,1-Dimethylethyl)aminosulfonyl]-2-trifluoromethyl-2H-1-benzopyran-3-carboxylic acid] | 19 | 229.3 to 233.5 |  | 
O=C(O)C1=Cc2cc(C(=O)Cc3ccccc3)ccc2OC1C(F)(F)F (stereo not shown) [Example 59, 6-Phenylacetyl-2-trifluoromethyl-2H-1-benzopyran-3-carboxylic acid] | 43 | 159 to 164 |  | 
O=C(O)C1=Cc2c(ccc3ccccc23)OC1C(F)(F)F (stereo not shown) [Example 63] | 1.4 | 244.7 to 249.8 |  | 
O=C(O)C1=Cc2cc(OC(F)(F)F)ccc2O[C@@H]1C(F)(F)F [Example 67, (S)-6-Trifluoromethoxy-2-trifluoromethyl-2H-1-benzopyran-3-carboxylic acid] |  |  | 6.7 | 
O=C(O)C1=Cc2cc(C(F)(F)F)ccc2OC1C(F)(F)F (stereo not shown) [Example 82, 2,6-Bis(trifluoromethyl)-2H-1-benzopyran-3-carboxylic acid] |  |  | 5.6 | 
O=C(O)C1=Cc2cc(C(=O)c3ccccc3)ccc2OC1C(F)(F)F (stereo not shown) [Example 96, 6-Benzoyl-2-(trifluoromethyl)-2H-1-benzopyran-3-carboxylic acid] | 0.2 | 269.8 to 270.8 |  | 0.3
CC(C)c1cc(Cl)cc2c1OC(C(F)(F)F)C(C(=O)O)=C2 (stereo not shown) [Example 103, 6-Chloro-8-(1-methylethyl)-2-trifluoramethyl-2H-1-benzopyran-3-carboxylic acid] | 36 |  |  | 
O=C(O)C1=Cc2cc(Cl)cnc2NC1C(F)(F)F (stereo not shown) [Example 174, 6-Chloro-2-(triflouromethyl)-1,2-dihydro[1,8]napthyridine-3-carboxylic acid] |  | 287.4 to 288.4 |  | 
O=C(O)C1=Cc2cc(Cl)c(S(=O)(=O)c3ccc(Cl)cc3)cc2OC1C(F)(F)F (stereo not shown) [Example 194, 6-Chloro-7-[(4-chlorophenyl)sulfonyl]-2-(trifluoromethyl)-2H-1-benzopyran-3-carboxylic acid] |  | 240.4 to 241.5 |  | 
O=C(O)C1=Cc2cc(Cl)c(Oc3cccc(Cl)n3)cc2OC1C(F)(F)F (stereo not shown) [Example 199, 6-Chloro-7-[(6-chloro-2-pyridinyl)oxy]-2-(trifluoromethyl)-2H-1-benzopyran-3-carboxylic acid] | < 0.1 | 226.4 to 227.4 |  | 
O=C(O)C1=Cc2cc(Cl)c(Oc3ccc([N+](=O)[O-])cc3)cc2OC1C(F)(F)F (stereo not shown) [Example 203, 6-Chloro-7-(4-nitrophenoxy)-2-(trifluoromethyl)-2H-1-benzopyran-3-carboxylic acid] | < 0.1 | 246.4 to 248.3 |  | 
O=C(O)C1=Cc2cc(Cl)c(Oc3ccccc3Cl)cc2OC1C(F)(F)F (stereo not shown) [Example 204, 6-Chloro-7-(2-chlorophenoxy)-2-(trifluoromethyl)-2H-1-benzopyran-3-carboxylic acid] |  | 199 to 199.1 |  | 
O=C(O)C1=Cc2cc(Cl)c(Oc3ccc(Cl)c(F)c3)cc2OC1C(F)(F)F (stereo not shown) [Example 205, 6-Chloro-7-(4-chloro-3-fluorophenoxy)-2-(trifluoromethyl)-2H-1-benzapyran-3-carboxylic acid] |  | 206.8 to 207.4 |  | 
CCC1=C(C(=O)O)C(C(F)(F)F)Oc2ccc(Cl)cc21 (stereo not shown) [Example 212, 6-Chloro-4-ethyl-2-trifluoromethyl-2H-1-benzopyran-3-carboxylic acid] |  | 170.9 to 172.1 |  | 

Reference: patent US7138411B2, “Substituted benzopyran derivatives for the treatment of inflammation” (G.D. Searle & Co., priority 1997, dated 2006)
